For this assay, the target named is T1, human recombinant GPR65 (Homo sapiens, UniProt Q8IYL9).
T1 construct: host or cells: 1321N1 human astrocytoma cells (1321N1-hrGPR65)
The assay is described as follows: Human GPR65 cAMP HTRF antagonist assay. Format: cell-based. The essentials:
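1321N1 astrocytoma cells stably expressing GPR65 were preincubated with compound for 30 min at room temperature in KRH pH 7.6 with 1 mM IBMX and 200 μM EDTA. They were then stimulated at assay pH 7.2 for 30 min, with controls at pH 7.9. cAMP was read by HTRF (665/620 nm), normalised to controls and fitted by 4-parameter logistic to give IC50.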
A general note: In TR-FRET formats the signal depends on donor and acceptor labels being close together.

Setting [1] is: 1321N1-hrGPR65 cells, assay pH 7.2, cAMP HTRF, read-out: hGPR65 IC50 (activity class).

Each structure is given as a SMILES string. Where two headings read alike, the source gives them in different places.

By IC50 is commonly meant the concentration needed to halve the response being measured.

T1 sequence (Q8IYL9 whole entry): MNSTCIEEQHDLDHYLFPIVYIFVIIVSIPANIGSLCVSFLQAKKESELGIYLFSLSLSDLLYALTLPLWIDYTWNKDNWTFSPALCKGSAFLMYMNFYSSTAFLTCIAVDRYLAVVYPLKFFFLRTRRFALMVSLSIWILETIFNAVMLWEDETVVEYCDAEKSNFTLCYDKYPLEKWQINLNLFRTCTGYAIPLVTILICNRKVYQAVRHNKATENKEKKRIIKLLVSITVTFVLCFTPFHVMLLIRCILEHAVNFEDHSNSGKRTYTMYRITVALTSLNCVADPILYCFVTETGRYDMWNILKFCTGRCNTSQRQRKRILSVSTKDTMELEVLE

Regarding `O=C(Nc1ccc(-n2cccn2)cc1)N1[C@H]2CC[C@@H]1c1ccnc(F)c1C2` [Compound 183, (5R,8S)-N-(4-(1H-Pyrazol-1-yl)phenyl)-1-fluoro-6,7,8,9-tetrahydro-5H-5,8-epiminocyclohepta[c]pyridine-10-carboxamide], the IC50 under setting [1] was 500 to 5000 nM.

Turning to `O=C(Nc1cccc(-c2ccccc2)c1)N1[C@H]2CC[C@@H]1c1ccnc(F)c1C2` [Compound 184, (5R,8S)-N-([1,1′-Biphenyl]-3-yl)-1-fluoro-6,7,8,9-tetrahydro-5H-5,8-epiminocyclohepta[c]pyridine-10-carboxamide], the IC50 is less than 500 nM.

Consider `O=C(Nc1ccc(Oc2ccccc2)cc1)N1[C@H]2CC[C@@H]1c1ccnc(F)c1C2` [Compound 185, (5R,8S)-1-Fluoro-N-(4-phenoxyphenyl)-6,7,8,9-tetrahydro-5H-5,8-epiminocyclohepta[c]pyridine-10-carboxamide], for which the concentration for half-maximal inhibition (IC50) is less than 500 nM.

`O=C(Nc1ccc(-c2cscn2)cc1)N1[C@H]2CC[C@@H]1c1ccnc(F)c1C2` [Compound 186, (5R,8S)-1-Fluoro-N-(4-(thiazol-4-yl)phenyl)-6,7,8,9-tetrahydro-5H-5,8-epiminocyclohepta[c]pyridine-10-carboxamide]: the IC50 under setting [1] lay within 500 to 5000 nM.

For `Cc1ncoc1-c1ccc(NC(=O)N2[C@H]3CC[C@@H]2c2ccnc(F)c2C3)cc1` [Compound 187, (5R,8S)-1-Fluoro-N-(4-(4-methyloxazol-5-yl)phenyl)-6,7,8,9-tetrahydro-5H-5,8-epiminocyclohepta[c]pyridine-10-carboxamide], the half-maximal inhibitory concentration (IC50) fell in the range of 500 to 5000 nM.

As to `O=C(Nc1ccc(-c2cnco2)cc1)N1[C@H]2CC[C@@H]1c1ccnc(F)c1C2` [Compound 188, (5R,8S)-1-Fluoro-N-(4-(oxazol-5-yl)phenyl)-6,7,8,9-tetrahydro-5H-5,8-epiminocyclohepta[c]pyridine-10-carboxamide], the half-inhibitory concentration (IC50) under setting [1] was 500 to 5000 nM.

Consider `O=C(Nc1cc(Cl)c(Cl)cc1F)N1[C@H]2CC[C@@H]1c1c(F)cncc1C2` [Compound 190, (5R,8S)-N-(4,5-Dichloro-2-fluorophenyl)-4-fluoro-6,7,8,9-tetrahydro-5H-5,8-epiminocyclohepta[c]pyridine-10-carboxamide], for which the IC50 is less than 500 nM.

For the compound `O=C(Nc1ccc(-c2ccccc2)cc1)N1[C@H]2CC[C@@H]1c1c[nH]c(=O)cc1C2` [Compound 191, (6S,9R)-N-([1,1′-Biphenyl]-4-yl)-3-oxo-3,5,6,7,8,9-hexahydro-2H-6,9-epiminocyclohepta[c]pyridine-10-carboxamide], the IC50 was less than 500 nM.

Take `O=C(Nc1ccc(-c2ccccc2)cc1)N1[C@H]2CC[C@@H]1c1ccnc(F)c1C2` [Compound 192, (5R,8S)-N-([1,1′-Biphenyl]-4-yl)-1-fluoro-6,7,8,9-tetrahydro-5H-5,8-epiminocyclohepta[c]pyridine-10-carboxamide]: the half-maximal inhibitory concentration (IC50) was less than 500 nM.

On to `O=C(Nc1cc(Cl)c(C(F)(F)F)cc1F)N1[C@H]2CC[C@@H]1c1ccc(F)nc1C2` [Compound 196, (5R,8S)-N-(5-Chloro-2-fluoro-4-(trifluoromethyl)phenyl)-2-fluoro-6,7,8,9-tetrahydro-5H-5,8-epiminocyclohepta[b]pyridine-10-carboxamide], for which the 50% inhibitory concentration (IC50) is less than 500 nM.

Turning to `O=C(Nc1cc(Cl)c(C(F)(F)F)cc1F)N1[C@@H]2CC[C@H]1c1ccc(F)nc1C2` [Compound 197, (5S,8R)-N-(5-Chloro-2-fluoro-4-(trifluoromethyl)phenyl)-2-fluoro-6,7,8,9-tetrahydro-5H-5,8-epiminocyclohepta[b]pyridine-10-carboxamide], the half-inhibitory concentration (IC50) lay within 500 to 5000 nM.

Consider `O=C(Nc1ccc(Cl)c(Cl)c1)N1[C@@H]2CC[C@H]1c1cnc(F)cc1C2` [Compound 198, (6R,9S)-N-(3,4-dichlorophenyl)-3-fluoro-6,7,8,9-tetrahydro-5H-6,9-epiminocyclohepta[c]pyridine-10-carboxamide], for which the IC50 lay in the range of 500 to 5000 nM.

Turning to `N#Cc1cc(NC(=O)N2[C@H]3CC[C@@H]2c2ccnc(F)c2C3)ccc1Cl` [Compound 199, (5R,8S)-N-(4-Chloro-3-cyanophenyl)-1-fluoro-6,7,8,9-tetrahydro-5H-5,8-epiminocyclohepta[c]pyridine-10-carboxamide], the half-inhibitory concentration (IC50) is less than 500 nM.

On to `O=C(Nc1cc(Cl)c(Cl)cc1F)N1[C@H]2CC[C@@H]1c1ccnc(C(F)(F)F)c1C2` [Compound 200, (5R,8S)-N-(4,5-dichloro-2-fluorophenyl)-1-(trifluoromethyl)-6,7,8,9-tetrahydro-5H-5,8-epiminocyclohepta[c]pyridine-10-carboxamide], for which the IC50 under setting [1] was 500 to 5000 nM.

These data come from US20230373989A1, “N-PHENYLAMINOCARBONYL PYRIDINO-, PYRIMIDINO AND BENZO-TROPANES AS MODULATORS OF GPR65” (PATHIOS THERAPEUTICS LIMITED, priority 2020, published 2023).
